In ChEMBL document CHEMBL4376865, “Discovery and Characterization of 1H-1,2,3-Triazole Derivatives as Novel Prostanoid EP4 Receptor Antagonists for Cancer Immunotherapy” (J Med Chem, 2020):

Legend:
[1] = target: Prostaglandin E2 receptor EP4 subtype (Homo sapiens, UniProt P35408)
Description: Antagonist activity at human EP4 expressed in CHO cells coexpressing G16-alpha assessed as intracellular calcium flux preincubated for 15 mins followed by addition of PGE2 by calcium flux assay

[2] = target: Prostaglandin E2 receptor EP4 subtype (Mus musculus, UniProt P32240); assay: Antagonist activity at mouse EP4 expressed in CHO cells coexpressing G16-alpha assessed as intracellular calcium flux preincubated for 15 mins followed by addition of PGE2 by calcium flux assay; type: functional, cell-based
[3] = target: T1, Prostaglandin E2 receptor EP1 subtype (Homo sapiens, UniProt P34995); assay: Antagonist activity at human EP1 expressed in CHO cells coexpressing G16-alpha assessed as intracellular calcium flux preincubated for 15 mins followed by addition of PGE2 by calcium flux assay; type: functional, cell-based
T1 sequence (P34995 whole entry): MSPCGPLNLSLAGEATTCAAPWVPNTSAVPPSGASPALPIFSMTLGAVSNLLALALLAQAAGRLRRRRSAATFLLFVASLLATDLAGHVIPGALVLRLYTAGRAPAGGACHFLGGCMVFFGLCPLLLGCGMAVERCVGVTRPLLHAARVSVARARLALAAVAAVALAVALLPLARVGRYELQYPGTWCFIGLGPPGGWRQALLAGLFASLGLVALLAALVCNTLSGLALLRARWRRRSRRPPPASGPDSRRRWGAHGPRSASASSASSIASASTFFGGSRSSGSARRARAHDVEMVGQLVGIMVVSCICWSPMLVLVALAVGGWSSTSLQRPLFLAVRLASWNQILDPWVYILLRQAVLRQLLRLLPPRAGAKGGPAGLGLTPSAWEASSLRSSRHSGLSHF

[4] = target: T2, Prostaglandin E2 receptor EP3 subtype (Homo sapiens, UniProt P43115)
T2 sequence (P43115 whole entry): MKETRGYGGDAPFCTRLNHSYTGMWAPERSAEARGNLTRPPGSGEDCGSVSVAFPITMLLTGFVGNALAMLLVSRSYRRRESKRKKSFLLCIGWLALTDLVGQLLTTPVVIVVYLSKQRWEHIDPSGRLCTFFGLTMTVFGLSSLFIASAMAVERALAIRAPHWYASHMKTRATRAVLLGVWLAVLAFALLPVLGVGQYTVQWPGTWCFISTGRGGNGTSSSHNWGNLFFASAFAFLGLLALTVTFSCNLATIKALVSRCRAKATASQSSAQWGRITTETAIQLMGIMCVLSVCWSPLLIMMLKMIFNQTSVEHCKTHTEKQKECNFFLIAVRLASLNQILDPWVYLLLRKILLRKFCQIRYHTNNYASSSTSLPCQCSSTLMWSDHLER
Description: Antagonist activity at human EP3 expressed in CHO cells coexpressing G16-alpha assessed as intracellular calcium flux preincubated for 15 mins followed by addition of PGE2 by calcium flux assay

[5] = target: Prostaglandin E2 receptor EP2 subtype (Homo sapiens, UniProt P43116)
Description: Antagonist activity at human EP2 expressed in CHO cells coexpressing G16-alpha assessed as intracellular calcium flux preincubated for 15 mins followed by addition of PGE2 by calcium flux assay

CYP2E1 = CYP2E1 (Homo sapiens, UniProt P05181); assay: Inhibition of CYP2E1 in human liver microsomes at 20 uM using chlorzoxazone as substrate incubated for 60 mins by HPLC analysis relative to control; type: ADME; conditions: probe chlorzoxazone
CYP1A2 = target: T3, CYP1A2 (Homo sapiens, UniProt P05177); assay: Inhibition of CYP1A2 in human liver microsomes at 20 uM using phenacetin as substrate incubated for 30 mins by HPLC analysis relative to control; type: ADME; conditions: probe phenacetin
T3 sequence (P05177 whole entry): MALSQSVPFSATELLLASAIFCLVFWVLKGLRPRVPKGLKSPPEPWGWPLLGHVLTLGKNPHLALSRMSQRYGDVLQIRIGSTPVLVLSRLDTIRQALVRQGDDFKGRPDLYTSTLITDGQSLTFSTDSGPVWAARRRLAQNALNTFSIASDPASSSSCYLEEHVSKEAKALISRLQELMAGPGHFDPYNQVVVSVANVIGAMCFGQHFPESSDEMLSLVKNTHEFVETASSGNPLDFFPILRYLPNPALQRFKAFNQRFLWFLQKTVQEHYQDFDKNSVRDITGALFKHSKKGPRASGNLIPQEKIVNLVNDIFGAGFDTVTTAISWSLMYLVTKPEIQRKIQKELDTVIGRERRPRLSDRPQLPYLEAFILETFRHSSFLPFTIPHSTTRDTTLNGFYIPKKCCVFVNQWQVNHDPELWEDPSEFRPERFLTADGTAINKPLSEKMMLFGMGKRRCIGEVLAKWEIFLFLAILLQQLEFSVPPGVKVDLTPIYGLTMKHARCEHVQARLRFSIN

CYP2D6 = CYP2D6 (Homo sapiens, UniProt P10635); assay: Inhibition of CYP2D6 in human liver microsomes at 20 uM using dextromethorphan as substrate incubated for 60 mins by HPLC analysis relative to control; type: ADME; conditions: probe dextromethorphan
Cytochrome P450 3A4 = Cytochrome P450 3A4 (Homo sapiens, UniProt P08684); assay: Inhibition of CYP3A4 in human liver microsomes at 20 uM using testosterone as substrate incubated for 60 mins by HPLC analysis; type: ADME; conditions: 1 h
CYP2C9 = CYP2C9 (Homo sapiens, UniProt P11712); assay: Inhibition of CYP2C9 in human liver microsomes at 20 uM using tolbutamide as substrate incubated for 60 mins by HPLC analysis relative to control; type: ADME; conditions: probe tolbutamide
CYP2B6 = target: T4, CYP2B6 (Homo sapiens, UniProt P20813); assay: Inhibition of CYP2B6 in human liver microsomes at 20 uM incubated for 60 mins by HPLC analysis relative to control; type: ADME
T4 sequence (P20813 whole entry): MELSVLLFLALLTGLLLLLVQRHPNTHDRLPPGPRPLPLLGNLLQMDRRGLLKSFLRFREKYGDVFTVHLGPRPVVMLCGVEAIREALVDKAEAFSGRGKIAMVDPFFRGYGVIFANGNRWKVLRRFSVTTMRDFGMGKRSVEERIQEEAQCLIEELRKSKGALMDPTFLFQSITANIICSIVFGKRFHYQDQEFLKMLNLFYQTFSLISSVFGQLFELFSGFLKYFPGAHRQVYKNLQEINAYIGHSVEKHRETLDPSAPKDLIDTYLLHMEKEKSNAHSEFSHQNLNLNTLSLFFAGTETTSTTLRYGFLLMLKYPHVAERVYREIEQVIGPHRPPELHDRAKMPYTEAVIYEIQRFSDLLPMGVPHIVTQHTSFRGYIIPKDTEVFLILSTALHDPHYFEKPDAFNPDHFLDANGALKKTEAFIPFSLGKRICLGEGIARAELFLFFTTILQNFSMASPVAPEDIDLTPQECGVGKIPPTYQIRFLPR

in vitro [6] = conditions: human, liver microsomes
in vitro [7] = conditions: CD1, mouse, liver microsomes
in vitro [8] = conditions: human, liver microsomes; remark: listed apart in the source
in vitro [9] = conditions: CD1, mouse, liver microsomes; remark: listed apart in the source
CT26 = assay: Antitumor activity against mouse CT26 cells xenografted in BALB/c mouse assessed as tumor growth inhibition at 150 mg/kg, po administerd daily and measured after two weeks; conditions: 336 h, read-out: TGI

Prostaglandin E2 receptor EP4 subtype (Mus musculus, UniProt P32240), sequence (P32240 whole entry): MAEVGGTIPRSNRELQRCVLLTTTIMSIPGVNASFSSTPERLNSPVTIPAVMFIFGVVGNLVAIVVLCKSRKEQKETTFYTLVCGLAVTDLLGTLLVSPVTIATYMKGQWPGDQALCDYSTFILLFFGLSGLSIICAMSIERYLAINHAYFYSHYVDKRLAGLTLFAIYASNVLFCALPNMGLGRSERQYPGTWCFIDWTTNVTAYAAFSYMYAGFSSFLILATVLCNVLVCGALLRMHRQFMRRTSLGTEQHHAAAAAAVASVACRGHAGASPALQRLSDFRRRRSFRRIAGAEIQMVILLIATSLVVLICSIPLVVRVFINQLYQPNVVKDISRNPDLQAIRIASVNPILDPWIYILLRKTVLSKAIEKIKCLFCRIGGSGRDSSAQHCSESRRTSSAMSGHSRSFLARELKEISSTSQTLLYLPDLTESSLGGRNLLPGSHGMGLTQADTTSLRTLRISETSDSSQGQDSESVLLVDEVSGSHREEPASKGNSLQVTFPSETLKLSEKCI
Prostaglandin E2 receptor EP2 subtype, sequence (P43116 whole entry): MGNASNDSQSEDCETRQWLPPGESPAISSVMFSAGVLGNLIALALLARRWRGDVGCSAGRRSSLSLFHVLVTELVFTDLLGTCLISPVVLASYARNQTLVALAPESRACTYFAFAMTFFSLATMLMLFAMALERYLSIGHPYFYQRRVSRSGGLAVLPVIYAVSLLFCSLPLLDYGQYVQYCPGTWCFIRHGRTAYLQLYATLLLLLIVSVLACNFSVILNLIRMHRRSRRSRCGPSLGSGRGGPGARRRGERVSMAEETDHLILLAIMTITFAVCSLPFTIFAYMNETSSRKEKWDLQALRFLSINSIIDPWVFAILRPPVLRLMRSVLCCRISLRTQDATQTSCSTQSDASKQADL
Prostaglandin E2 receptor EP4 subtype (Homo sapiens, UniProt P35408), sequence (P35408 whole entry): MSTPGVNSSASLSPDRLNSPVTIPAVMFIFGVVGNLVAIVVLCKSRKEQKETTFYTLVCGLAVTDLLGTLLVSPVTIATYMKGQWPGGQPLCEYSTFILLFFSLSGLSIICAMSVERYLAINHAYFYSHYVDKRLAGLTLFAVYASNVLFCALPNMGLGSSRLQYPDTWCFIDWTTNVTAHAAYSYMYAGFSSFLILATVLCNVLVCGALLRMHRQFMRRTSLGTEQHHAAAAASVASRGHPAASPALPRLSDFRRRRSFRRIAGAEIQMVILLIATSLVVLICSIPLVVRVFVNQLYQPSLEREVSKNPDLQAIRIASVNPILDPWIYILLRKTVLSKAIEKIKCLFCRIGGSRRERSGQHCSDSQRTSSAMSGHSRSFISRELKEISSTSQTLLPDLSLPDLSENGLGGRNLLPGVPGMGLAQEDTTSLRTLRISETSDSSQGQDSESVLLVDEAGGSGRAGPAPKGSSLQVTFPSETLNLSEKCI
CYP2C9, sequence (P11712 whole entry): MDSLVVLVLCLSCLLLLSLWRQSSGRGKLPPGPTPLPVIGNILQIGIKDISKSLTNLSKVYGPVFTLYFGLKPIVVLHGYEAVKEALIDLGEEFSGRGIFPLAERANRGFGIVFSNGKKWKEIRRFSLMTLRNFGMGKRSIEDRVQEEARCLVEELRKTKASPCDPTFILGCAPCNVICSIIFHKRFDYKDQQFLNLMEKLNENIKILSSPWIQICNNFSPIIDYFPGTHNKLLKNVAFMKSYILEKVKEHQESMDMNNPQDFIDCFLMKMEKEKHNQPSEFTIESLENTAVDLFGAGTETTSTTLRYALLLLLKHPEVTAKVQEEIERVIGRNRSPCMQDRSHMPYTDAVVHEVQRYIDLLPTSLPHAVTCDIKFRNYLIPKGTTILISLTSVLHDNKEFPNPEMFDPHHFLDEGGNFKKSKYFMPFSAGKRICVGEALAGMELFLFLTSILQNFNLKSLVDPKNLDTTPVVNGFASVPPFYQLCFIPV
CYP2E1, sequence (P05181 whole entry): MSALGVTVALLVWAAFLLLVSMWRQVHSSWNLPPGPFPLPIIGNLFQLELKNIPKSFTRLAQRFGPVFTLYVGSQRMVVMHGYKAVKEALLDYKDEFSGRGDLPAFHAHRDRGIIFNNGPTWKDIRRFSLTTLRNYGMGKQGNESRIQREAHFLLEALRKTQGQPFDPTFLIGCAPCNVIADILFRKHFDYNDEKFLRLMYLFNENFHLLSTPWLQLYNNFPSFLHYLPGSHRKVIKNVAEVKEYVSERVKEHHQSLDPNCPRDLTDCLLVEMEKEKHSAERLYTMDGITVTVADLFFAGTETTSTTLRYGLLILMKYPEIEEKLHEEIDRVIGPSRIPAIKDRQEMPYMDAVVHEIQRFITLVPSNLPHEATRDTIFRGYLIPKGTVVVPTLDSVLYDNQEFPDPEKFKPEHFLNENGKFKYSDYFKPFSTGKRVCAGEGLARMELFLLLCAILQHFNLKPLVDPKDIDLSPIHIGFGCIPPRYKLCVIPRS
Cytochrome P450 3A4, sequence (P08684 whole entry): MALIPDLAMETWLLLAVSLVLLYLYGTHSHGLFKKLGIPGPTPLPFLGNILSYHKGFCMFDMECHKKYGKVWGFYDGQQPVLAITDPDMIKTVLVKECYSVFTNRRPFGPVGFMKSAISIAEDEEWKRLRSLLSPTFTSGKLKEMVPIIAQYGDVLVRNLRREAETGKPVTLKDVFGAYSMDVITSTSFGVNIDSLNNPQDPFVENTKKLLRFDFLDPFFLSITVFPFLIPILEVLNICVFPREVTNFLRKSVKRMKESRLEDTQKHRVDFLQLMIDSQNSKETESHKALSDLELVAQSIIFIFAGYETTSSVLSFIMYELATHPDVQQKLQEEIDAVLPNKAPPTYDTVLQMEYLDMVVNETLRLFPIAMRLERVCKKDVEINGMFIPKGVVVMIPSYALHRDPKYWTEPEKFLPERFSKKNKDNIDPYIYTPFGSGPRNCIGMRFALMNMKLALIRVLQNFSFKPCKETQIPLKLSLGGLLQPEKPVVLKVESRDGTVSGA
CYP2D6, sequence (P10635 whole entry): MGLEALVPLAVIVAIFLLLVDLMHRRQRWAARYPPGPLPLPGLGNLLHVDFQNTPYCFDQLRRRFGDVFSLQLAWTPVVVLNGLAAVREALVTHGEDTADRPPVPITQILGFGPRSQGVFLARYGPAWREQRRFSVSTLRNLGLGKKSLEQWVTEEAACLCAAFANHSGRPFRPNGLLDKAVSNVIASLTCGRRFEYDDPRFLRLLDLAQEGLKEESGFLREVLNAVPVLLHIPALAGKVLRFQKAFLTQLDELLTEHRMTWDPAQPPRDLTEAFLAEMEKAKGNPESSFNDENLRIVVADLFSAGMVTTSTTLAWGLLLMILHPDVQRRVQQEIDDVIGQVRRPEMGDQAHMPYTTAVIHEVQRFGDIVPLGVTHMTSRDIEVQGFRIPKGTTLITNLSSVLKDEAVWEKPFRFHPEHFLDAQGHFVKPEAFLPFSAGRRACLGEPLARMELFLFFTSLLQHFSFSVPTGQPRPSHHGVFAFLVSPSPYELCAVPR

Compound: C[C@H](NC(=O)c1c(-c2ccc(F)cc2)nnn1Cc1ccc(C(F)(F)F)cc1)c1ccc(C(=O)O)cc1
- IC50 [1]: 57.9 nM

Compound: C/C=C/c1nnn(Cc2ccc(C(F)(F)F)cc2)c1C(=O)NCc1ccc(C(=O)O)cc1
- IC50 [1]: 10.5 nM
- IC50 [2]: 130 nM

Compound: Cc1ccc(-c2nnn(Cc3ccc(C(F)(F)F)cc3)c2C(=O)N[C@@H](C)c2ccc(C(=O)O)cc2)s1
- IC50 [3]: > 10000 nM
- IC50 [4]: > 10000 nM
- IC50 [5]: > 10000 nM
- IC50 [2]: 42.1 nM

Compound: CC#Cc1nnn(Cc2ccc(C(F)(F)F)cc2)c1C(=O)N[C@@H](C)c1ccc(C(=O)O)cc1
- inhibition at 1 h, 20 µM (CYP2E1): 76%
- inhibition at 0.5 h, 20 µM (CYP1A2): 82%
- inhibition at 1 h, 20 µM (CYP2D6): 38%
- inhibition (INH) (Cytochrome P450 3A4): Not Active
- IC50 [3]: > 10000 nM
- inhibition at 1 h, 20 µM (CYP2C9): 69%
- IC50 [1]: 32 nM
- IC50 [5]: > 10000 nM
- inhibition at 1 h, 20 µM (CYP2B6): 34%
- IC50 [2]: 70.9 nM

Compound: C/C=C/c1nnn(Cc2ccc(C(F)(F)F)cc2)c1C(=O)N[C@H](C)c1ccc(C(=O)O)cc1
- IC50 [1]: > 1000 nM

Compound: O=C(O)Cc1ccccc1Nc1c(Cl)cccc1Cl [DICLOFENAC]
- microsomal CLint at 1 h, 10 µM (in vitro [6]): 131 µL/min/mg
- half-life at 1 h, 10 µM (in vitro [7]): 53.6 min
- half-life at 1 h, 10 µM (in vitro [8]): 10.6 min
- microsomal CLint at 1 h, 10 µM (in vitro [9]): 25.8 µL/min/mg

Compound: C[C@H](NC(=O)c1nnn(CCc2ccc(F)cc2)c1C(F)(F)F)c1ccc(C(=O)O)cc1
- IC50 [1]: > 10000 nM

Compound: Cc1nnn(Cc2ccc(C(F)(F)F)cc2)c1C(=O)N[C@@H](C)c1ccc(C(=O)O)cc1
- IC50 [1]: > 10000 nM

Compound: C[C@]12CC[C@H]3[C@@H](CCC4=CC(=O)CC[C@@]43C)[C@@H]1CC[C@@H]2O [TESTOSTERONE]
- microsomal CLint at 1 h, 10 µM (in vitro [6]): 71.3 µL/min/mg
- half-life at 1 h, 10 µM (in vitro [7]): 2.9 min
- half-life at 1 h, 10 µM (in vitro [8]): 19.4 min
- microsomal CLint at 1 h, 10 µM (in vitro [9]): 479 µL/min/mg

Compound: C[C@H](NC(=O)c1c(C(F)F)nn(C)c1Oc1cccc(C(F)(F)F)c1)c1ccc(C(=O)O)cc1 [PALUPIPRANT]
- inhibition at 1 h, 20 µM (CYP2E1): 79%
- inhibition at 0.5 h, 20 µM (CYP1A2): 41%
- inhibition at 1 h, 20 µM (CYP2D6): 35%
- inhibition (INH) (Cytochrome P450 3A4): Not Active
- inhibition at 1 h, 20 µM (CYP2C9): 67%
- inhibition at 1 h, 20 µM (CYP2B6): 23%
- inhibition in vivo at 150 mg/kg (CT26): 43.2%
- IC50 [2]: 181 nM

Compound: C[C@H](NC(=O)c1c(C(F)(F)F)nnn1CCc1ccc(F)cc1)c1ccc(C(=O)O)cc1
- IC50 [1]: > 10000 nM

Compound: C[C@H](NC(=O)c1c(-c2ccccc2)nnn1Cc1ccc(F)cc1)c1ccc(C(=O)O)cc1
- IC50 [1]: 330 nM

Compound: C[C@H](NC(=O)c1c(-c2ccccc2)nnn1CCOc1ccc(C(F)(F)F)cc1)c1ccc(C(=O)O)cc1
- IC50 [1]: 49.1 nM

Compound: C/C=C/c1nnn(Cc2ccc(C(F)(F)F)cc2)c1C(=O)NC1(c2ccc(C(=O)O)cc2)CC1
- IC50 [1]: 13.9 nM
- IC50 [2]: 33.7 nM

Compound: C[C@H](NC(=O)c1c(C(F)(F)F)nnn1Cc1ccc(C(F)(F)F)cc1)c1ccc(C(=O)O)cc1
- IC50 [1]: 225 nM

Compound: C[C@H](NC(=O)c1nnn(Cc2ccc(C(F)(F)F)cc2)c1C(F)(F)F)c1ccc(C(=O)O)cc1
- IC50 [1]: > 10000 nM

Compound: C[C@H](NC(=O)c1c(-c2ccccc2)nnn1CCOc1ccc(F)cc1)c1ccc(C(=O)O)cc1
- IC50 [3]: > 10000 nM
- IC50 [4]: > 10000 nM
- IC50 [5]: > 10000 nM
- IC50 [2]: 132 nM
